The text below walks through data of patent publication US10845371B2, “Soluble MANF in pancreatic beta-cell disorders” (University of Massachusetts, priority 2012, dated 2020).

The test system of data set [1] is MEROS-GFP (ER redox state) in INS-1 832/13 cells. As to the kind of experiment: MEROS-GFP pilot screen of 1280-compound library and follow-up screens. Type of data set: cell-based, rat.
Description: A pilot screen of a 1280-compound library (MicroSource), a collection of 1,040 U.S. drugs and 240 international drugs (FIG. 39) was performed. In this experiment, INS-1 832/13 cells stably-expressing MEROS-GFP were seeded (20,000 cells/well) in black optical 96-well plates. After 24 hours, 2 μL of each compound was added using the TeMo liquid handling robot. After another 24 hours, cells were challenged with 0.2 mM DTT, a strong reducing agent, for 2 hours, and then the MEROS-GFP ratio was calculated.
The test system of data set [2] is MEROS-GFP (ER redox state) in NSC34 cells. The data set can be described thus: Time course of MEROS-GFP ratio in NSC34 cells. Format: cell-based. The conditions noted are these: 1 mM DTT for 10 minutes, then wash, FIG. 14. As for the experimental part:
FIG. 14 is a graph showing a time course of the MEROS-GFP ratio in NSC34 cells that are treated with 1 mM DTT for 10 minutes, and then washed. The MEROS-GFP ratio was calculated at each minute interval between one minute prior to treatment to four minutes after the wash. The bottom line represents the fluorescence observed with excitation at 473 nm, the black line represents the MEROS-GFP ratio, and the light grey line represents the fluorescence with excitation at 394 nm (n=3; S.D.).
The MEROS-GFP ratio was also monitored in DTT-treated cells at different time points.

In data set [3] the test system is MEROS-GFP (ER redox state) in INS-1 832/13 cells. The data set can be described thus: MEROS-GFP ratio by fluorescent plate reader in INS-1 832/13 cells. Format: cell-based, rat. Particulars: 30 minutes; H2O2 0.1 or 1 mM, DTT 0.1-10 mM, FIG. 12. On the procedure: FIG. 12 is a graph of the MEROS-GFP ratio in INS-1 832/13 cells left untreated (no label), or treated with H2O2 (1 or 0.1 mM H2O2) or DTT (0.1, 0.2, 0.5, 1, 2, 5, or 10 mM DTT). The MEROS-GFP ratio was determined using a plate reader. The data shown are mean±S.D. (n=3).
The ratio between fluorescence from excitation 473 nm versus 394 nm normalized to wild-type untreated cells is called the MEROS-GFP ratio. The MEROS-GFP ratio was determined using a fluorescent plate reader. In these experiments, the INS-1 832/13 cells were plated onto a 96-well plate at 50,000 cells/well, the cells treated with H2O2 or DTT at various concentrations for 30 minutes, and the fluorescence at excitation wavelength 473 nm and emission wavelength 510 nm (for reduced MEROS-GFP) or at excitation wavelength 394 nm and emission wavelength 510 nm (for oxidized MEROS-GFP) was measured. The MEROS-GFP ratio was determined after substraction of background signal.

The subject of data set [4] is MEROS-GFP in INS-1 832/13 cells. The data set can be described thus: Confocal microscopy of MEROS-GFP fluorescence. The conditions noted are these: 2 mM DTT, FIG. 11. Type of data set: cell-based, rat. On the procedure:
FIG. 11 is a set of four confocal microscopy images of MEROS-GFP gathered using a 476-nm excitation wavelength (bottom two panels) or a 405-nm excitation wavelength (top two panels) in INS-1 832/13 cells treated with (right two panels) or without (left two panels) 2 mM DTT.

The test system is the same in data set [5]. The data set can be described thus: Non-reducing SDS-PAGE of AMS-modified MEROS-GFP. Type of data set: cell-based, rat. The conditions noted are these: 2 mM DTT, FIG. 13. As for the experimental part:
FIG. 13 is photograph of non-reducing polyacrylamide gel electrophoresis (PAGE) of 4-acetamido-4′-maleimidylstilbene-2, 2′-disulfonic acid (AMS)-modified MEROS-GFP in lysate from cells left untreated (left lane) or treated with 2 mM DTT (right lane). The lysates were either left untreated (−βME) (top) or were treated with β-mercaptoethanol (+βME) (bottom) prior to electrophoresis.
Additional experiments were performed to confirm that the MEROS-GFP ratio reflected changes in its redox state in vivo. In these experiments, the redox state of MEROS-GFP was monitored using non-reducing SDS-PAGE in combination with the thiol-alkylating reagent, 4-acetamido-4′-maleimidylstilbene-2, 2′-disulfonic acid (AMS). In these experiments, INS-1 832/13 cells left untreated or treated with 2 mM DTT, were lysed with 1× SDS-PAGE sample buffer containing 25 mM AMS with or without 2-β-mercaptoethanol, boiled at 95° C. for 10 minutes, electrophoresed using SDS-PAGE, and immunoblotted using an anti-GFP antibody.

Data set [6] has as its system MEROS-GFP (ER redox state) in INS-1 832/13 cells. The data set can be described thus: MEROS-GFP ratio by flow cytometry in INS-1 832/13 cells. Format: cell-based, rat. On the procedure: FIG. 15 is fluorescence-assisted cell sorting (FACS) data of INS-1 832/13 cells stably-transfected with MEROS-GFP following no treatment or treatment with DTT (0.2, 0.5, or 10 mM DTT). The data was collected using excitation wavelengths of 488 nm and 405 nm, and an emission spectrum of 510 nm.
FIG. 16 is a histogram of FACS data of INS-1 832/13 cells stably-transfected with MEROS-GFP following no treatment or treatment with DTT (0.2 mM, 0.5 mM, or 10 mM DTT). The horizontal axis represents the MEROS-GFP ratio and the vertical axis represents the number of cells.
FIG. 17 is a graph of the median MEROS-GFP ratio in INS-1 832/13 cells stably-transfected with MEROS-GFP following no treatment or treatment with DTT (0.2, 0.5, or 10 mM DTT). The MEROS-GFP values shown are normalized to the untreated values.
FIG. 18 is two graphs showing data from FACS analysis of INS-1 832/13 cells stably-transfected with MEROS-GFP following no treatment or treatment with 1 mM H2O2 for 30 minutes. The right graph is a histogram of the MEROS-GFP ratio in INS-1 832/13 cells not treated or treated with 1 mM H202.
FIG. 19 is a graph of the median MEROS-GFP ratio calculated in INS-1 832/13 cells using FACS analysis following no treatment or treatment with tunicamycin (TM) (5 μM; 24 hours), thapsigargin (TG) (10 nM; 24 hours), TG (1 μM; 4 hours), brefeldin A (BreA) (100 ng/mL; 24 hours), or MG132 ([…]; 24 hours). […] The data are normalized to the median MEROS-GFP ratio calculated for the untreated cells.
The error bars represent ±S.D. The data are normalized to the median MEROS-GFP ratio calculated for the untreated cells.
FIG. 24 is a graph of the median MEROS-GFP ratio in INS-1 832/13 cells left untreated or treatment with human islet amyloid polypeptide (IAPP) (10 μM; 24 hours), mouse IAPP (10 μM; 24 hours), or cytokines ([…] (5 ng/mL), INFγ (100 ng/mL), and TNFα (25 ng/mL); 24 hours)). The error bars represent ±S.D. The data are normalized to the median MEROS-GFP ratio calculated for the untreated cells.
Flow cytometry was used to precisely monitor the MEROS-GFP ratio in vivo.
Experiments were performed to study the relationship between the UPR and the heterogeneity of the redox state. In these experiments, both the redox state and the activation levels of the UPR were monitored in the same cells. To achieve this, a UPR reporter gene encoding the red fluorescent protein, mCherry, driven by the human BiP promoter was constructed. […] This BiP-mCherry reporter plasmid was transfected into INS-1 832/13 cells expressing MEROS-GFP, and FACS analysis was used to monitor the MEROS-GFP ratio and the activation levels of the UPR via BiP-mCherry in the same cells (FIG. 31). The activation levels of BiP-mCherry and the MEROS-GFP ratio were monitored following the induction of ER stress. In these experiments, INS-1 832/13 cells expressing MEROS-GFP were plated onto 6-well plates, treated with each compound for indicated times, and then harvested by trypsinization. After washing with phosphate buffered saline, cells were resuspended in the 11 mM glucose-Hanks buffered salt solution. Flow cytometry analyses were performed with LSRII (BD).

Data set [7] relates to INS-1 832/13 cells. As to the kind of experiment: Mitochondrial membrane potential (MitoProbe staining) after palmitate. Format: cell-based, rat. Particulars: 0.5 mM palmitate; 10 nM or 50 nM apomorphine, FIGS. 41 and 42.
Data set [8] deals with INS-1 832/13 cells. As to the kind of experiment: Cell viability (propidium iodide) after palmitate. Format: cell-based, rat. Particulars: 0.5 mM palmitate and 10 nM apomorphine, FIG. 42.
Data set [9] relates to INS-1 832/13 cells expressing MEROS-GFP. As to the kind of experiment: Reduced-ER cell population (MEROS-GFP FACS) after palmitate challenge. Type of data set: cell-based, rat. Particulars: apomorphine 24 hours (10 μM per FIG. 40), then 0.5 mM palmitate 24 hours.
Data set [10] relates to INS-1 832/13 cells. As to the kind of experiment: Percentage of dead cells in thapsigargin-treated INS-1 832/13 cells. Type of data set: cell-based, rat. As for the experimental part: (§1) FIG. 38 is two graphs showing the percentage of dead cells (left graph) or the median MEROS-GFP ratio (right graph) of INS-1 832/13 cells treated with DMSO alone, 10 nM thapsigargin (Tg), 10 nM Tg and 10 μM pioglitazone, or 10 nM Tg and 500 μg/mL tauroursodeoxycholic acid (TUDCA).
FIG. 43 is a graph of the percentage of dead cells following no treatment or treatment with 10 nM thapsigargin (Tg) or treatment with 10 nM Tg and 10 nM apomorphine.

Data set [11] deals with WFS1-knockdown β-cells (INS-1 832/13-derived). As to the kind of experiment: Doxycycline-inducible WFS1 knockdown INS-1 832/13 cells, cellular model of Wolfram syndrome. Particulars: 2 μM doxycycline shWFS1; 10 nM apomorphine or 10 μM pioglitazone, FIG. 44. Format: cell-based, rat. As for the experimental part: (§2) FIG. 44 are two immunoblots showing the amount of cleaved caspase 3 (c-caspase3) and cleaved PARP (c-PARP) present in 10 nM thapsigargin-treated primary human islets (right immunoblot) and 2 μM doxycycline-treated WFS1 knockdown INS-1 832/13 cells (shWFS1) (left immunoblot) treated with 10 nM apomorphine or 10 μM pioglitazone.
Additional experiments were performed using INS-1 832/13-derived doxycycline-inducible WFS1 knockdown cells, a cellular model of Wolfram syndrome. This model was used to test whether apomorphine and pioglitazone could prevent cell death.

For the next data set, the system named is human islets. The data set can be described thus: Thapsigargin-mediated cell death in primary human islets (cleaved caspase 3 / PARP immunoblot). Type of data set: cell-based. Particulars: 10 nM thapsigargin; 10 nM apomorphine or 10 μM pioglitazone, FIG. 44. On the procedure: as §2
Additional experiments were performed to determine whether apomorphine and pioglitazone can protect human islets from ER stress-mediated cell death.
For orientation: Immunoblotting shows a protein as a band on a membrane.

Data set [12] has as its system MEROS-GFP (ER redox state) in INS-1 832/13 cells. The data set can be described thus: Median MEROS-GFP ratio in thapsigargin-treated INS-1 832/13 cells. Type of data set: cell-based, rat. Particulars: 10 nM thapsigargin; 10 μM pioglitazone or 500 μg/mL TUDCA, FIG. 38 right panel. As for the experimental part:
as §1
To investigate this possibility, two FDA-approved drugs, pioglitazone (Actos) and tauroursodeoxycholic acid (TUDCA), could affect the ER redox state and ameliorate cell death in cellular models of ER diseases. […] Another small molecule, TUDCA, has been used for treatment of gallstones and biliary cirrhosis and shown to mitigate ER stress in mouse models of diabetes.

Data set [13] deals with INS-1 832/13 cells. The data set can be described thus: Toxicity on INS-1 832/13 cells. Type of data set: cell-based, rat.

Structures are written as SMILES.

Consider `O[C@H](CS)[C@H](O)CS` (racemic) [DTT, dithiothreitol], for which the “Average MEROS-GFP ratio in the pilot screen” value in data set [1] (0.2 mM DTT challenge for 2 hours, 96-well plates, untreated 0.037) is 0.069 (S.D. =0.006). For the same molecule, in [2], the “Time to reduction of the ER (MEROS-GFP ratio)” value was “ER could be reduced within a few minutes”. Also, the “MEROS-GFP ratio (plate reader)” value in data set [3] is listed as “increased the MEROS-GFP ratio in a dose-dependent manner”. Moreover, the “MEROS-GFP fluorescence from 476 nm excitation” value in data set [4] is recorded as “significantly increased”. For the same molecule, the “Redox state of MEROS-GFP (AMS, non-reducing SDS-PAGE)” value in data set [5] is “fully reduced MEROS-GFP in vivo”. Also, the “Ratio of fluorescence from excitation at 488 nm versus 405 nm (FACS)” value in data set [6] (DTT 0.2, 0.5, 10 mM, FIGS. 15 and 16) was “dose dependent increase”. In data set [6] (normalized to untreated, DTT 0.2-10 mM, 1 mM H2O2 30 min, TM 5 μM, TG 10 nM 24 h or 1 μM 4 h, BreA 100 ng/mL, MG132, palmitate 0.2-0.5 mM, hIAPP 10 μM, 24 h, FIGS. 17-24), the “Median MEROS-GFP ratio (FACS)” value was “increased the median MEROS-GFP ratio in a dose-dependent manner”.

On to `CN1CCc2cccc3c2[C@H]1Cc1ccc(O)c(O)c1-3` [apomorphine], for which, in the data set on INS-1 832/13 cells [7], the “Population with lower mitochondrial membrane potential” value is “decreased the population with lower mitochondrial membrane potential”. The “ER stress-induced cell death (propidium iodide)” value in the data set with INS-1 832/13 cells [8] is given as “suppressed ER stress-induced cell death”. The “Population of cells that had reduced ER” value in data set [9] is given as “decreased the population of cells that had reduced ER”. The “Cell death (percentage of dead cells)” value in the data set with INS-1 832/13 cells [10] (10 nM thapsigargin and 10 nM apomorphine, FIG. 43) is recorded as “protected INS-1 832/13 cells from ER stress-mediated cell death”. In data set [11], the “Cell death of WFS1-knockdown cells” value is “could protect WFS1-knockdown β-cells from cell death”, the “Cleavage of PARP (caspase 3 substrate)” value was “suppressed” and the “Cleavage of caspase 3” value is on record as “suppressed cleavage of caspase 3”. Besides, the Thapsigargin-mediated cell death result in the data set on human islets is “could protect human islets from thapsigargin-mediated cell death”.

As for `C[C@H](CCC(=O)NCCS(=O)(=O)O)[C@H]1CC[C@H]2[C@@H]3[C@@H](O)C[C@@H]4C[C@H](O)CC[C@]4(C)[C@H]3CC[C@]12C` [TUDCA, tauroursodeoxycholic acid], the “ER redox state (median MEROS-GFP ratio)” value in data set [12] is given as “shift the ER towards an oxidizing environment”. Moreover, the “Cell death (percentage of dead cells)” value with INS-1 832/13 cells [10] (10 nM thapsigargin, 10 μM pioglitazone or 500 μg/mL TUDCA, FIG. 38 left panel) is listed as “protect cells from death under ER stress conditions”.

On to `COC1=CC(=O)C[C@@H](C)[C@]12Oc1c(Cl)c(OC)cc(OC)c1C2=O` [griseofulvin], for which the “Outcome in the screening assays” value in data set [1] (DTT screen, 0.4 mM palmitate + 20 mM glucose screen, FACS confirmation with 0.5 mM palmitate) was “positively identified in the screening assays”. Further, the “Toxic effects on cells” value with INS-1 832/13 cells [13] was “strong toxic effects”.
